Test results taken from patent US12128035B2, “Activating pyruvate kinase R” (Novo Nordisk Health Care AG, priority 2021, dated 2024).
Where “and” joins values, the source holds several entries; their conditions need not be identical. Equal values may be shown once.

Legend:
Human SCD cells = assay: Ex vivo sickling under hypoxic conditions; format: cell-based; conditions: for Net % of Sickled Cells / % Protection: 10 μM
Protocol: Red blood cells from SCD patients were used to evaluate the effects of Compound 1 on Hgb affinity for oxygen (i.e., oxygen affinity) and sickling under hypoxic conditions. Cells were incubated at 37° C. for 1, 2, and 3 hr with HEPES buffered saline (HBS) (untreated), HBS+dimethyl sulfoxide (DMSO) (vehicle), or 10 μM Compound 1. To assess oxygen dissociation, Hgb oxygen equilibrium curves were collected during deoxygenation.
Compound 1 (10 μM) reduced cell sickling under severe hypoxic conditions of 2% oxygen (PO2 of <20 mmHg) for up to 20 min (Table 8).

[1] = format: physicochemical
Excerpt: (§1) [drawing 2] is a selective, orally bioavailable PKR Activating Compound that decreases 2,3-DPG, increases ATP, and has anti-sickling effects in disease models with a wide therapeutic margin relative to preclinical toxicity. Compound 1 is a potent activator of PKR and a multi-modal metabolic modulator of RBCs. Activation of PKR simultaneously reduces 2,3-DPG concentrations, which increases hemoglobin-oxygen affinity and decreases sickling, while also increasing intracellular ATP, which improves RBC health and reduces hemolysis, or RBC death. Compound 1 is a BCS class II compound with poor water solubility and high permeability.

[2] = target: T1, PKR in mouse red blood cells (Mus musculus, UniProt P53657); assay: Cell assay: PKR activation in mouse RBCs; format: cell-based
T1 construct: endogenous in cells; host or cells: mouse RBCs freshly isolated from whole blood
Excerpt: Mouse RBCs were isolated fresh from whole blood using a Ficoll gradient and assayed with methods similar to those used in the human RBCs assays.

Log D7.4 = format: physicochemical; conditions: pH 7.4
Excerpt: as §1

[3] = system: p50 (PO2 at 50% hemoglobin saturation); assay: Phase 1 SAD/MAD: p50 (Hemox Analyzer) in healthy volunteers; format: in vivo, human; conditions: for Mean p50 Value: 24 hours after first dose on day 14; for Mean Absolute Change in p50 / Mean Percentage Change in p50: 24 hours after first dose on day 14, relative to baseline; for median reduction in p50: all dose levels; for Mean Absolute Change in p50 (mmHg): 24 hours after dose, relative to baseline
Protocol: In the SAD cohorts, the subjects' p50 (PO2 at 50% hemoglobin saturation) were determined 24-hours post-dose. p50 measured 24 hours after a single dose of Compound 1 were reduced at all dose levels tested (median reduction ranged from ˜3-5 mmHg). Table 17 reports the mean absolute change in p50, relative to baseline, measured 24 hours after a single dose of Compound 1 (200 mg, 400 mg, 700 mg, or 1000 mg) or placebo in healthy volunteers.
In the MAD cohorts, the subjects' p50 (PO2 at 50% hemoglobin saturation) were determined on day 14. p50 values measured after 14 days of twice daily dosing were reduced at all dose levels tested (median reduction ranged from ˜3-5 mmHg). Table 19 reports the mean p50 value and the mean absolute change and percentage change in p50, relative to baseline, measured 24 hours after the first dose given on day 14 in healthy volunteers who received daily doses of Compound 1 (100 mg BID, 200 mg BID, 300 mg BID, or 400 mg QD) or placebo for 14 days.
The oxygen affinity of RBCs was measured in patient blood using a Hemox Analyzer (TCS Scientific Corp.), an automatic system for the recording of blood oxygen equilibrium curves and related phenomena. The Hemox Analyzer was used according to standard methods to determine the hemoglobin-oxygen dissociation curves for whole blood samples, numerically characterized by the p50, the partial pressure of oxygen at which hemoglobin is 50% saturated. The operating principle of the Hemox-Analyzer is based on dual-wavelength spectrophotometry for the measurement of the optical properties of hemoglobin and a Clark electrode for measuring the oxygen partial pressure in millimeters of mercury. Whole blood is diluted and placed into a special plastic cuvette that is maintained at 37° C. To perform the analysis, a beam of polychromatic light is passed through the cuvette and is made monochromatic prior to reaching the photomultiplier detectors. In the case of hemoglobin, the wavelength of maximum absorbance is the measuring wavelength (560 nm), while the reference wavelength is at the isosbestic point at (570 nm). The absorbance at the isosbestic point remains unchanged during the deoxygenation process of the hemoglobin, however the measuring wavelength (560 nm) undergoes a drastic change in absorbance. This change is detected by the electronic circuitry and is plotted as the log/ratio change between the two wavelengths. The log/ratio measurement at 560 nm and 570 nm is utilized to measure the optical absorbance change during the deoxygenation of the hemoglobin. Simultaneously with the measurement of the hemoglobin absorbance, the oxygen concentration is directly measured in the sample using a Clark electrode. Under normal atmospheric conditions of 760 mm of mercury the oxygen concentration (i.e., the oxygen partial pressure) is 149 mm of mercury. This saturation point is used for full-scale calibration of the computer prior to starting the plotting of the curve. When the oxygen is being replaced by an inert gas (nitrogen) in a continuous procedure, hemoglobin becomes deoxygenated.

T1 sequence (P53657 whole entry): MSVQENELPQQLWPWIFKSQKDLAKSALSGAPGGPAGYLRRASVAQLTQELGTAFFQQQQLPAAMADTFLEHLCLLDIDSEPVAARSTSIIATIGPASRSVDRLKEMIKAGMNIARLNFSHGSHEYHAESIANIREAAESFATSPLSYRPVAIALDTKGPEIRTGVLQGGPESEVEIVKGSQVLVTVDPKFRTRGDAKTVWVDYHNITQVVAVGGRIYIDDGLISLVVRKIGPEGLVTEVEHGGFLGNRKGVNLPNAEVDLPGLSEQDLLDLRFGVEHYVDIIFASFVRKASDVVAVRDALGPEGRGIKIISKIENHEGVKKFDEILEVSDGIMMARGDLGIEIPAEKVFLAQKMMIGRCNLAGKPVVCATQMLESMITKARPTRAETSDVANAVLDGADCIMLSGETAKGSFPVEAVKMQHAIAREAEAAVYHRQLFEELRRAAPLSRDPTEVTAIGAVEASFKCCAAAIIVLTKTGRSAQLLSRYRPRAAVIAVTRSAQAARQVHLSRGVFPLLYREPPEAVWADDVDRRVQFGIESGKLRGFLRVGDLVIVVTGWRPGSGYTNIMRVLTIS

O=C([C@H](CO)c1ccccc1)N1CC2=C(C1)CN(S(=O)(=O)c1cnc3c(c1)OCCO3)C2 (single isomer, unassigned) [Compound 1]
Net % of Sickled Cells (Human SCD cells; 0 min in hypoxic conditions (DMSO 7)): 10%
% Protection (Human SCD cells; 2 min in hypoxic conditions): −15%
Net % of Sickled Cells (Human SCD cells; 2 min in hypoxic conditions (DMSO 41)): 47%
% Protection (Human SCD cells; 5 min in hypoxic conditions): 14%
Net % of Sickled Cells (Human SCD cells; 5 min in hypoxic conditions (DMSO 57)): 49%
% Protection (Human SCD cells; 10 min in hypoxic conditions): 11%
Net % of Sickled Cells (Human SCD cells; 10 min in hypoxic conditions (DMSO 61)): 54%
% Protection (Human SCD cells; 15 min in hypoxic conditions): 16%
Net % of Sickled Cells (Human SCD cells; 15 min in hypoxic conditions (DMSO 68)): 57%
Net % of Sickled Cells (Human SCD cells; 20 min in hypoxic conditions (DMSO 71)): 60%
% Protection (Human SCD cells; 20 min in hypoxic conditions (last time point)): 15%
percent protection (maximum) (Human SCD cells; severe hypoxic conditions of 2% oxygen): up to 16%
BCS class [1]: BCS class II
Max − Min (%), Mean ([2]; mean of replicates): <100%
Max − Min (%) ([2]; single replicates): <50% and <100%
Log D7.4 (Log D7.4): 1.09
Mean p50 Value ([3]; HV 100 mg BID): 22.96 mmHg
Mean Absolute Change in p50 ([3]; HV 100 mg BID): −3.26 mmHg
Mean Percentage Change in p50 ([3]; HV 100 mg BID): −12.42%
Mean p50 Value ([3]; HV 200 mg BID): 22.33 mmHg
Mean Absolute Change in p50 ([3]; HV 200 mg BID): −5.34 mmHg
Mean Percentage Change in p50 ([3]; HV 200 mg BID): −19.33%
Mean p50 Value ([3]; HV 300 mg BID): 21.69 mmHg
Mean Absolute Change in p50 ([3]; HV 300 mg BID): −4.24 mmHg
Mean Percentage Change in p50 ([3]; HV 300 mg BID): −16.05%
Mean p50 Value ([3]; HV 400 mg QD): 21.75 mmHg
Mean Absolute Change in p50 ([3]; HV 400 mg QD): −4.09 mmHg
Mean Percentage Change in p50 ([3]; HV 400 mg QD): −15.76%
median reduction in p50 ([3]; HV MAD cohorts, after 14 days of dosing): 3-5 mmHg
Mean Maximum Percent Change from Baseline, p50 ([3]; HV MAD, all doses and timepoints (N = 36)): −15.9%
median reduction in p50 ([3]; HV SAD, 24 hours after a single dose): 3-5 mmHg
Mean Maximum Percent Change from Baseline, p50 ([3]; HV SAD, all doses and timepoints (N = 24)): −15.6%
Mean Absolute Change in p50 (mmHg) ([3]; HV single 200 mg): −2.91 mmHg
Mean Absolute Change in p50 (mmHg) ([3]; HV single 400 mg): −3.41 mmHg
Mean Absolute Change in p50 (mmHg) ([3]; HV single 700 mg): −4.85 mmHg
Mean Absolute Change in p50 (mmHg) ([3]; HV single 1000 mg): −5.05 mmHg
